Data as given in ChEMBL document CHEMBL2203184, “Synthesis of novel triplet drugs with 1,3,5-trioxazatriquinane skeletons and their pharmacologies. 3: synthesis of novel triplet drugs with the bis(epoxymethano) or bis(dimethylepoxymethano) structure (double-capped triplet)” (Bioorg Med Chem Lett, 2012).
pEC50, pKi: −log10 of the molar value.

Tests used:
[1] = Selectivity ratio of Ki for mu opioid receptor in mouse whole brain without cerebellum to Ki for kappa opioid receptor in guinea pig cerebellum
Mu-type opioid receptor [2] = biological target: Mu-type opioid receptor (Mus musculus, UniProt P42866); experiment: Displacement of [3H]DAMGO from mu opioid receptor in mouse whole brain without cerebellum
Chain of Mu-type opioid receptor (Mus musculus, UniProt P42866) (P42866 whole entry): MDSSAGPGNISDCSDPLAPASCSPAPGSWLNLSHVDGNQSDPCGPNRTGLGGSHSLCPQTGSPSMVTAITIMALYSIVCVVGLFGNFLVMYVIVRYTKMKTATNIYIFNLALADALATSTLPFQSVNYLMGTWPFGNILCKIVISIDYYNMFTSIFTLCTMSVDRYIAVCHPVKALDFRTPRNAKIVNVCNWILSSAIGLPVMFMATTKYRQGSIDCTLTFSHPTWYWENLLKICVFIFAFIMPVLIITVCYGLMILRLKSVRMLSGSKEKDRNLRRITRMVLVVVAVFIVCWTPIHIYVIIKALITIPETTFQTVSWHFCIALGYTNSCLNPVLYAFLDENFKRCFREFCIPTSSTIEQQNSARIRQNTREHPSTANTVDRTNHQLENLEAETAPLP

[3] = Selectivity ratio of Ki for kappa opioid receptor in guinea pig cerebellum to Ki for mu opioid receptor in mouse whole brain without cerebellum
[4] = biological target: Kappa-type opioid receptor (Cavia porcellus, UniProt P41144); experiment: Displacement of [3H]U-69,593 from kappa opioid receptor in guinea pig cerebellum
Chain of Kappa-type opioid receptor (Cavia porcellus, UniProt P41144) (P41144 whole entry): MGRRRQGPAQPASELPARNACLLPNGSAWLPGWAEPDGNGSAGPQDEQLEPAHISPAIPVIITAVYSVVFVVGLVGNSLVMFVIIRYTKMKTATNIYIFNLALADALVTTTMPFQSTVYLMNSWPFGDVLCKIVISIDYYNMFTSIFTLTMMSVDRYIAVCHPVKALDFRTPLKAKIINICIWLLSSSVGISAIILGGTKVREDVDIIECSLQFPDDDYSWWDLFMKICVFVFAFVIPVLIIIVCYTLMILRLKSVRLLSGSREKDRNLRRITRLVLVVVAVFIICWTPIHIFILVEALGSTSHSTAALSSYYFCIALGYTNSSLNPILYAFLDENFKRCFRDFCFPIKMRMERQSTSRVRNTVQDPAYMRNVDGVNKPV

[5] = Selectivity ratio of Ki for delta opioid receptor in mouse whole brain without cerebellum to Ki for kappa opioid receptor in guinea pig cerebellum
Mus musculus = species on record: Mus musculus; experiment: Selectivity ratio of Ki for delta opioid receptor in mouse whole brain without cerebellum to Ki for mu opioid receptor in mouse whole brain without cerebellum
[6] = biological target: Delta-type opioid receptor (Mus musculus, UniProt P32300); experiment: Displacement of [3H]DPDPE from delta opioid receptor in mouse whole brain without cerebellum
Chain of Delta-type opioid receptor (P32300 whole entry): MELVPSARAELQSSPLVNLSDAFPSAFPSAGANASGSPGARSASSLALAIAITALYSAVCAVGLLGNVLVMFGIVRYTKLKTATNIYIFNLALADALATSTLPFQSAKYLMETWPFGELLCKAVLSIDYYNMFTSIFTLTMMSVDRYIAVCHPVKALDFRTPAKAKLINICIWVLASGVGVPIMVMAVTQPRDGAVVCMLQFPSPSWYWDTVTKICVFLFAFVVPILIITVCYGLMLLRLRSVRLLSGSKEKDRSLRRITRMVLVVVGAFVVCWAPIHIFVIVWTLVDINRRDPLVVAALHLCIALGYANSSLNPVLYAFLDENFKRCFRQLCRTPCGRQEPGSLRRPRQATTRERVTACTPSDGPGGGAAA

Mu-type opioid receptor [7] = biological target: T1, Mu-type opioid receptor (Homo sapiens, UniProt P35372); experiment: Agonist activity at human mu opioid receptor expressed in CHO cells assessed as [35S]GTPgammaS binding after 2 hrs by liquid scintillation counting; assay type: functional, cell-based
T1 sequence (P35372 whole entry): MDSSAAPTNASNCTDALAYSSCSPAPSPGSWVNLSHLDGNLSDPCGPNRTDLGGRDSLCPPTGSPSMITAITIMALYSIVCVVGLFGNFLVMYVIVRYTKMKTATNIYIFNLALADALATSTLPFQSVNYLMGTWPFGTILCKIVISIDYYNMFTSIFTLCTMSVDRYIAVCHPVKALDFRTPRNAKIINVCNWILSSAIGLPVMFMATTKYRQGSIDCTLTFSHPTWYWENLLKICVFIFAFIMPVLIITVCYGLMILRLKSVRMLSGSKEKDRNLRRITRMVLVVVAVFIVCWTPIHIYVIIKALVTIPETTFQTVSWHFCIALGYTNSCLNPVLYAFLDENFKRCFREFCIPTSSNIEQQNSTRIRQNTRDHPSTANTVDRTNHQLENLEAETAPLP

Mu-type opioid receptor [8] = biological target: T1, Mu-type opioid receptor; experiment: Agonist activity at human mu opioid receptor expressed in CHO cells assessed as [35S]GTPgammaS binding after 2 hrs by liquid scintillation counting relative to DAMGO; assay type: functional, cell-based
[9] = biological target: T2, Kappa-type opioid receptor (Homo sapiens, UniProt P41145); experiment: Agonist activity at human kappa opioid receptor expressed in CHO cells assessed as [35S]GTPgammaS binding after 2 hrs by liquid scintillation counting; assay type: functional, cell-based
T2 sequence (P41145 whole entry): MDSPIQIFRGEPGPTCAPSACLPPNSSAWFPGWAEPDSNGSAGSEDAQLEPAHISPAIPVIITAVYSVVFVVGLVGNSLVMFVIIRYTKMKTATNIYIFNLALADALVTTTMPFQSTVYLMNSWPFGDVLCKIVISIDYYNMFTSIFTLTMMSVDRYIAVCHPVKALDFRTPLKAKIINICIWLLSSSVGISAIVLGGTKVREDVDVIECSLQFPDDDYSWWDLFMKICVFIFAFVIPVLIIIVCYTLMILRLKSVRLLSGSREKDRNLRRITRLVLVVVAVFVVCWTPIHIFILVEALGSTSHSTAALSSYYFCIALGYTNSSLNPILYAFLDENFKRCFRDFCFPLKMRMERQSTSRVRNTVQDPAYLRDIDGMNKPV

[10] = biological target: T2, Kappa-type opioid receptor; experiment: Agonist activity at human kappa opioid receptor expressed in CHO cells assessed as [35S]GTPgammaS binding after 2 hrs by liquid scintillation counting relative to U-69,593; assay type: functional, cell-based

Compound	Ratio Ki [1]	pKi (Mu-type opioid receptor [2])	Ratio Ki [3]	pKi [4]	Ratio Ki [5]	Ratio Ki (Mus musculus)	pKi [6]	pEC50 (Mu-type opioid receptor [7])	Emax (Mu-type opioid receptor [8]) [%]	pEC50 [9]	Emax [10] [%]
CC(C)CN1CC[C@]23c4c5ccc(O)c4O[C@H]2[C@]2(CC[C@@]3(O)[C@H]1C5)O[C@H]1CO[C@H]3CO[C@@H]2N31	< 0.086	7.07	> 11.7	< 6.00	< 0.848	9.89	6.07	–	–	–	–
CC(C)CN1CC[C@]23c4c5ccc(O)c4O[C@H]2[C@]2(CC[C@@]3(O)[C@H]1C5)O[C@@H]1N3[C@@H](OC1(C)C)C(C)(C)O[C@H]32	< 0.134	6.87	> 7.46	< 6.00	< 0.541	4.04	6.27	–	–	–	–
CN1CC[C@]23c4c5ccc(O)c4O[C@H]2[C@]2(CC[C@@]3(O)[C@H]1C5)O[C@@H]1N3[C@@H](OC1(C)C)C(C)(C)O[C@H]32	< 0.0027	8.57	> 375	< 6.00	< 0.0098	3.66	8.01	–	–	–	–
Oc1ccc2c3c1O[C@H]1[C@]4(CC[C@@]5(O)[C@@H](C2)N(CC2CC2)CC[C@]315)O[C@H]1CO[C@H]2CO[C@@H]4N21	1.15	8.16	0.869	8.23	13.2	11.5	7.10	–	–	–	–
CN1CC[C@]23c4c5ccc(O)c4O[C@H]2[C@]2(CC[C@@]3(O)[C@H]1C5)O[C@H]1CO[C@H]3CO[C@@H]2N31	< 0.0024	8.62	> 420	< 6.00	< 0.133	55.9	6.88	–	–	–	–
CC(C)CN1CC[C@]23c4c5ccc(O)c4O[C@H]2[C@]2(CC[C@@]3(O)[C@H]1C5)O[C@@H]1CO[C@@H]3CO[C@H]2N31	< 0.099	7.00	> 10.1	< 6.00	< 0.079	0.798	7.10	–	–	–	–
CN1CC[C@]23c4c5ccc(O)c4O[C@H]2[C@]2(CC[C@@]3(O)[C@H]1C5)O[C@H]1N3[C@H](OC1(C)C)C(C)(C)O[C@@H]32	< 0.0019	8.73	> 541	< 6.00	< 0.079	42.8	7.10	8.22	79.1	–	–
CN1CC[C@]23c4c5ccc(O)c4O[C@H]2[C@]2(CC[C@@]3(O)[C@H]1C5)O[C@@H]1CO[C@@H]3CO[C@H]2N31	0.0214	8.63	46.6	6.96	1.57	73.1	6.77	–	–	–	–
CC1(C)O[C@@H]2N3[C@H]1O[C@]1(CC[C@@]4(O)[C@H]5Cc6ccc(O)c7c6[C@@]4(CCN5CC4CC4)[C@H]1O7)[C@@H]3OC2(C)C	0.221	8.27	4.52	7.62	0.909	4.11	7.66	–	–	–	–
Oc1ccc2c3c1O[C@H]1[C@]4(CC[C@@]5(O)[C@@H](C2)N(CC2CC2)CC[C@]315)O[C@@H]1CO[C@@H]2CO[C@H]4N21	2.24	8.06	0.446	8.41	25.9	11.5	7.00	–	–	7.60	70
CC1(C)O[C@@H]2N3[C@H]1O[C@]1(CC[C@@]4(O)[C@H]5Cc6ccc(O)c7c6[C@@]4(CCN5Cc4ccccc4)[C@H]1O7)[C@@H]3OC2(C)C	–	< 6.00	–	< 6.00	–	–	< 6.00	–	–	–	–
Oc1ccc2c3c1O[C@H]1[C@]4(CC[C@@]5(O)[C@@H](C2)N(Cc2ccccc2)CC[C@]315)O[C@@H]1CO[C@@H]2CO[C@H]4N21	–	< 6.00	–	< 6.00	–	–	< 6.00	–	–	–	–
Oc1ccc2c3c1O[C@H]1[C@]4(CC[C@@]5(O)[C@@H](C2)N(Cc2ccccc2)CC[C@]315)O[C@H]1CO[C@H]2CO[C@@H]4N21	< 0.581	6.24	> 1.72	< 6.00	< 0.084	0.145	7.08	–	–	–	–
CC1(C)O[C@H]2N3[C@@H]1O[C@]1(CC[C@@]4(O)[C@H]5Cc6ccc(O)c7c6[C@@]4(CCN5Cc4ccccc4)[C@H]1O7)[C@H]3OC2(C)C	< 0.45	6.35	> 2.22	< 6.00	–	> 2.22	< 6.00	–	–	–	–
CC1(C)O[C@H]2N3[C@@H]1O[C@]1(CC[C@@]4(O)[C@H]5Cc6ccc(O)c7c6[C@@]4(CCN5CC4CC4)[C@H]1O7)[C@H]3OC2(C)C	0.271	8.67	3.69	8.10	9.1	33.6	7.14	–	–	–	–
CC(C)CN1CC[C@]23c4c5ccc(O)c4O[C@H]2[C@]2(CC[C@@]3(O)[C@H]1C5)O[C@H]1N3[C@H](OC1(C)C)C(C)(C)O[C@@H]32	< 0.088	7.06	> 11.4	< 6.00	–	> 11.4	< 6.00	–	–	–	–
